Results taken from patent US12702715B2, “Targeted RNA degradation allows precision repurposing of protein-targeted small molecule medicines to RNA” (University of Florida Research Foundation, Incorporated, priority 2020, dated 2026).
Entries after “also recorded” stand apart in the source; their conditions may differ.

Columns and labels:
RNase L = RNase L (Homo sapiens, UniProt Q05823); assay: In vitro RNase L oligomerization; format: biochemical
Method: In Vitro RNase L Oligomerization. To a solution of RNase L (3 μM) in 1× RNase L Buffer (add components) was added MgCl2, fresh β-mercaptoethanol, and ATP to final concentrations of 10 mM, 7 mM, and 50 μM respectively. The oligomerization of RNase L induced by small molecules was assessed as previously reported^6. The monomeric and oligomeric RNase L protein was resolved by Western blot and detected using an RNase L primary antibody (1:6000 dilution; Cell Signaling Technology, D4B4J). The blot was incubated with the antibody in 1×TBST (Tris-buffered saline supplemented with 0.1% (v/v) Tween-20) and 5% (w/v) nonfat dry milk at 4° C. overnight. After washing, the blot was incubated with 1:12000 anti-rabbit IgG, HRP-linked Antibody (Cell Signaling Technology, 7074S) in 1×TBST with 5% (w/v) nonfat dry milk for 1 h at room temperature. After washing with 1×TBST for 10 min three times, monomeric and oligomerized RNase L protein was detected by using SuperSignal West Pico Chemiluminescent Substrate (Pierce Biotechnology). ImageJ software was used for quantification.

[1] = molecular target: T1, RNase L / pre-miR-21 ternary complex (Homo sapiens, UniProt Q05823); assay: RNase L immunoprecipitation; format: cell-based; settings: 1 μM
T1 construct: endogenous in cells; host or cells: MDA-MB-231
T1 sequence (Q05823 1-741): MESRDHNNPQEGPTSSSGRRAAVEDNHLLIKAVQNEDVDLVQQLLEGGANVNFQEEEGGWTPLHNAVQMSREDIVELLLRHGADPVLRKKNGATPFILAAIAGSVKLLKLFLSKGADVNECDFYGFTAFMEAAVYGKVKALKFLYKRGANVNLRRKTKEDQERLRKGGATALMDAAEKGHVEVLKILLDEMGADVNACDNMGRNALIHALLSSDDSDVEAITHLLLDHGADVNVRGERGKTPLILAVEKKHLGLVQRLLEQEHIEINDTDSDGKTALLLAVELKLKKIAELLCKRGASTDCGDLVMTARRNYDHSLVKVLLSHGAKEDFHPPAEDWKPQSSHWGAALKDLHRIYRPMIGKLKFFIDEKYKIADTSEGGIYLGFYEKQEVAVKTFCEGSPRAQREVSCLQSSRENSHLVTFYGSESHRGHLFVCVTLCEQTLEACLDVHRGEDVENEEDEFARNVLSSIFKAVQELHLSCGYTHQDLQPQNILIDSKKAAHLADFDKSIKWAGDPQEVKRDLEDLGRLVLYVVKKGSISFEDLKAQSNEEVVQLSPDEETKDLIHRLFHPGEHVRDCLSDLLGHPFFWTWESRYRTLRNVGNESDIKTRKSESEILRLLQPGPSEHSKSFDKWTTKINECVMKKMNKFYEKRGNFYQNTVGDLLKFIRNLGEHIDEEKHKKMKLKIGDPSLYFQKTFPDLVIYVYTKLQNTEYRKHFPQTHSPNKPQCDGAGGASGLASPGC
Method: RNase L Immunoprecipitation. MDA-MB-231 cells were seed in 6-well plates and were treated with vehicle, 4 (1 μM) or 5 (1 μM) when the cells reached ~70% confluency. After 48 h, the cells were harvested and lysed in 100 μL of M-PER buffer containing protease inhibitor and RNaseOUT recombinant Ribonuclease Inhibitor (Invitrogen) on ice for 20 min. The lysate was centrifuged at 13,000×g for 15 min, and the supernatants were incubated with Dynabeads Protein A (Life Technologies) bound to RNase L mouse primary antibody or β-actin mouse primary antibody overnight at 4° C. After incubation, the beads were washed with 1×DPBS containing 0.02% (v/v) Tween-20, and RNA was extracted by using a miRNeasy Mini Kit (Qiagen) per the manufacturer's instructions. RT-qPCR was performed as described above. Relative RNA levels were determined by ΔΔCt method by normalizing to 18S rRNA levels. Normalized fold change was calculated as previously described^6.

Alport mice (Col4a3−/−) = assay: Alport mice studies; format: in vivo, mouse
Method: Alport Mice Studies. Alport mice (Col4a3^−/−) and wild type (WT) mice (Col4a3^+/+) were obtained from the breeding of heterozygous […]. Urine was collected 1 day before the treatment, considered as Day 1. The treatment started at Day 2, at around 4 weeks of age. Alport mice were treated with vehicle or 2 as described for NOD/SCID mice in the “In Vivo Studies to Assess Metastasis of Breast Cancer to the Lung” section. Urine was collected every other day for analysis of albumin or creatine levels. After 6 weeks of treatment, the mice were euthanized on Day 43. One kidney was frozen in −80° C. for Western blot and RT-qPCR analyses. The other kidney was fixed in formalin for paraffin-embedding sectioning and further staining.
Evaluation of Kidney Function. The concentration of urine albumin was determined by using a Mouse Albumin ELISA Kit (Bethyl Laboratories Inc, E99-134) per the manufacturer's protocol. Urine creatinine level was measured by using a Urinary Creatinine Assay Kit (Fisher Scientific, 50-673-569) per the manufacturer's protocol.
Kidney Tissue Histology. Silver staining, PAS staining, and PPARα staining were performed by Histology Core at Scripps Research Florida. The anti-PPARα (Abcam, ab215270) was used at 1:1000 dilution. FISH imaging of miR-21 and pre-miR-21 were completed as described in “Lung Tissue Histology”.

pre-miR-21 = assay: In vitro Dicer processing of pre-miR-21; format: biochemical, human
Method: In vitro Dicer Processing. The pre-miR-21 WT RNA or pre-miR-21 base pair mutant were 5′-end labeled with T4 polynucleotide kinase and [γ-^32P] ATP as described previously^7. The RNA was folded in 1× Reaction Buffer (Genlantis) by heating at 55° C. for 5 min and cooling slowly to room temperature on the benchtop. The mixture was then supplemented with 2.5 mM MgCl2 and 1 mM ATP. The Dicer processing reaction was performed as described previously^6. The cleavage products were resolved on a 15% polyacrylamide denaturing gel and imaged using a Molecular Dynamics Typhoon phosphorimager and quantified with QuantityOne software from Bio-Rad.

Structure (SMILES)	RNase L oligomerization / dimerization (RNase L)	enrichment of pre-miR-21 in RNase L immunoprecipitation ([1]; MDA-MB-231)	enrichment of pre-miR-210 in RNase L immunoprecipitation ([1]; pre-miRNA without 1-binding site)	body weight of Alport mice (Alport mice (Col4a3−/−); 56 mg/kg q.o.d.)	urine albumin normalized to urine creatinine (Alport mice (Col4a3−/−); 56 mg/kg, q.o.d., 42 days)	PPARα expression in kidneys (Alport mice (Col4a3−/−); Alport mice)	tubule injury / tubulointerstitial pathology (Alport mice (Col4a3−/−); PAS staining)	pre-miR-21 levels in kidneys (Alport mice (Col4a3−/−); both Alport and WT mice)	mature miR-21 levels in kidneys (Alport mice (Col4a3−/−); both WT and Alport mice, RT-qPCR)	glomerulosclerosis (Alport mice (Col4a3−/−); silver methenamine staining)	in vitro processing of pre-miR-21 (pre-miR-21)
CCOC(=O)C1=C(Nc2ccccc2)S/C(=C\c2ccc(OCCOCCOCCOCCNC(=O)NCCN3CCN(c4ccc5[nH]c(-c6c(N)c7c(F)cccc7[nH]c6=O)nc5c4)CC3)c(O)c2)C1=O [Compound 2, Ribotac-Dovitinib]	recruits and dimerizes; also recorded: oligomerized RNase L in a dose dependent manner	immunoprecipitated pre-miR-21; also recorded: enriched	did not enrich	gained more weight than vehicle-treated mice	stabilized; also recorded: decreased urine albumin concentration	enhanced; also recorded: derepressed	significantly reduced; also recorded: prevented tubule injury	reduced; also recorded: decreased	decreased miR-21 levels; also recorded: reduced	prevents glomerulosclerosis and tubular atrophy; also recorded: significantly reduced	
CN1CCN(c2ccc3nc(-c4c(N)c5c(F)cccc5[nH]c4=O)[nH]c3c2)CC1 [Compound 1, Dovitinib, reference compound]											inhibited
